According to patent US20110190365A1, “Insecticidal 4-phenyl-1H-pyrazoles” (Bayer Crop Science AG, priority 2008, published 2011):

Assay: log P by HPLC on a reversed-phase column (C18), EEC Directive 79/831 Annex V.A8
Type: physicochemical
Conditions: for chromatographic logP: read-out: log P (HCOOH)
Protocol: The stated log P values were determined in accordance with EEC Directive 79/831 Annex V.A8 by HPLC (High Performance Liquid Chromatography) using a reversed-phase column (C18).

[1] = HPLC, reversed-phase C18, mobile phase with formic acid
[2] = HCOOH, Table 4, compounds of formula I-A-Q4

| Compound | log P (HCOOH) (HCOOH) | other results |
| --- | --- | --- |
| Cc1cc(-n2nc(C(F)(F)F)c(-c3cc(Cl)cc(Cl)c3)c2N)ccc1C(=O)NCc1cccc(Br)n1 [I-A-Q2-253] | I-A-Q2-253: log P (HCOOH): 4.40 | – |
| N#Cc1ccc(-c2c(C(F)(F)F)nn(-c3ccc(-n4cncn4)c(C#N)c3)c2N)cc1 [I-A-Q1-047] | – | log P (HCOOH) [1]: I-A-Q1-047: log P (HCOOH): 2.64 |
| CN(C)c1cc(-n2nc(C(F)(F)F)c(-c3cc(Cl)cc(Cl)c3)c2N)ccc1C(=O)O [I-A-Q4-121] | – | log P (HCOOH) [2]: I-A-Q4-121: log P (HCOOH): 3.07 |
| COC(=O)c1ccc(NN)cc1C [VII-A-008, Methyl 4-hydrazino-2-methylbenzoate] | – | chromatographic logP [1]: 0.4 |
| CC(NC(=O)c1ccc(-n2nc(C(F)(F)F)c(-c3cc(F)c(F)c(F)c3)c2N)cc1)c1ccccn1 (stereo not drawn) [I-A-Q2-196] | I-A-Q2-196: log P (HCOOH): 2.84 | – |
| N#Cc1cc(-n2nc(C(F)(F)F)c(-c3ccc(Cl)c(F)c3)c2N)ccc1-n1cncn1 [I-A-Q1-032] | – | log P (HCOOH) [1]: I-A-Q1-032: log P (HCOOH): 3.28 |
| CCCC(NC(=O)c1ccc(-n2nc(C(F)(F)F)c(-c3cc(Cl)cc(Cl)c3)c2N)cc1)C(F)(F)F (stereo not drawn) [I-A-Q2-071] | I-A-Q2-071: log P (HCOOH): 4.95 | – |
| N#Cc1cc(-n2nc(C(F)F)c(-c3ccc(Cl)cc3)c2N)ccc1-n1cncn1 [I-A-Q1-030] | – | log P (HCOOH) [1]: I-A-Q1-030: log P (HCOOH): 2.92 |
| CCCc1nn(-c2ccc(-n3cncn3)c(C#N)c2)c(N)c1-c1ccc(Cl)cc1 [I-A-Q1-065] | – | log P (HCOOH) [1]: I-A-Q1-065: log P (HCOOH): 3.33 |
| Cc1cc(-n2nc(C)c(-c3ccccc3Cl)c2N)ccc1C(=O)NCC(F)(F)C(F)F [I-A-Q2-333] | I-A-Q2-333: log P (HCOOH): 2.59 | – |
| CC(NC(=O)c1ccc(-n2nc(C(F)(F)F)c(-c3ccc(Cl)c(Cl)c3)c2N)cc1)C(F)(F)F (stereo not drawn) [I-A-Q2-155] | I-A-Q2-155: log P (HCOOH): 4.11 | – |
| Cc1cc(-n2nc(C(F)(F)F)c(-c3cc(Cl)cc(Cl)c3)c2N)ccc1C(=O)N(C)Cc1ccccn1 [I-A-Q2-110] | I-A-Q2-110: log P (HCOOH): 2.69 | – |
| N#Cc1cc(-n2nc(C(F)(F)F)c(-c3cc(Cl)cc(Cl)c3)c2N)ccc1-n1cc(Br)cn1 [I-A-Q1-078] | – | log P (HCOOH) [1]: I-A-Q1-078: log P (HCOOH): 4.83 |
| Nc1c(-c2ccc(Cl)cc2)c(C(F)F)nn1-c1ccc(Cl)cn1 [I-A-Q4-057] | – | log P (HCOOH) [2]: I-A-Q4-057: log P (HCOOH): 4.45 |
| Cc1cc(-n2nc(C(F)(F)F)c(-c3cc(Cl)cc(Cl)c3)c2N)ccc1C(=O)NCC(F)(F)C(F)(F)C(F)(F)F [I-A-Q2-266] | I-A-Q2-266: log P (HCOOH): 4.89 | – |
| CC(NC(=O)c1ccc(-n2nc(C(F)(F)F)c(-c3cc(Cl)cc(Cl)c3)c2N)cc1)C(F)(F)F (stereo not drawn) [I-A-Q2-133] | I-A-Q2-133: log P (HCOOH): 4.44 | – |
| Cc1cc(-n2nc(C(F)(F)F)c(-c3cc(Cl)cc(Cl)c3)c2N)ccc1C(=O)NCc1ccc(F)cn1 [I-A-Q2-039] | I-A-Q2-039: log P (HCOOH): 3.94 | – |
| Cc1cc(-n2nc(C(F)(F)F)c(-c3cc(Cl)cc(Cl)c3)c2N)ccc1C(=O)NCC[S+](C)[O-] (stereo not drawn) [I-A-Q2-273] | I-A-Q2-273: log P (HCOOH): 2.98 | – |
| CNC(=O)c1ccc(-n2nc(-c3ccccc3)c(-c3ccc(Cl)cc3)c2N)cc1 [I-A-Q2-078] | I-A-Q2-078: log P (HCOOH): 2.94 | – |
| CCS(=O)(=O)c1ccc(-n2nc(C(F)(F)F)c(-c3cc(Cl)cc(Cl)c3)c2N)c(F)c1 [I-A-Q4-019] | – | log P (HCOOH) [2]: I-A-Q4-019: log P (HCOOH): 3.94 |

| Compound | log P (HCOOH) (HCOOH) | other results |
| --- | --- | --- |
| Nc1c(-c2ccc(Cl)c(F)c2)c(C(F)(F)F)nn1-c1ccc(C(=O)NC2CC2)cc1 [I-A-Q2-167] | I-A-Q2-167: log P (HCOOH): 3.19 | – |
| CCOC(=O)c1ccc(-n2nc(C(F)(F)F)c(Br)c2N)cc1 [XI-A-018] | XI-A-018: log P (HCOOH): 3.60 | – |
| COC(=O)c1ccc(-n2nc(C(F)(F)F)c(-c3cc(Cl)cc(Cl)c3)c2N)cc1SC [I-A-Q4-118] | – | log P (HCOOH) [2]: I-A-Q4-118: log P (HCOOH): 4.93 |
| Nc1c(-c2cc(F)cc(Cl)c2)c(C(F)(F)F)nn1-c1ccc(C(=O)NCC(F)(F)F)cc1 [I-A-Q2-086] | I-A-Q2-086: log P (HCOOH): 3.68 | – |
| CC(NC(=O)c1ccc(-n2nc(C(F)(F)F)c(-c3ccc(Cl)c(Cl)c3)c2N)cc1)c1ccccn1 (stereo not drawn) [I-A-Q2-160] | I-A-Q2-160: log P (HCOOH): 3.23 | – |
| N#Cc1cc(-n2nc(C(F)(F)F)c(-c3ccccc3Cl)c2N)ccc1-n1cncn1 [I-A-Q1-035] | – | log P (HCOOH) [1]: I-A-Q1-035: log P (HCOOH): 2.80 |
| Nc1c(-c2cc(Cl)cc(Cl)c2)c(C(F)(F)F)nn1-c1ccc(C(=O)NC2CCC2)cc1 [I-A-Q2-141] | I-A-Q2-141: log P (HCOOH): 4.21 | – |
| Nc1c(-c2cc(F)cc(Cl)c2)c(C(F)(F)F)nn1-c1ccc(C(=O)NC2CC2)cc1 [I-A-Q2-092] | I-A-Q2-092: log P (HCOOH): 3.27 | – |
| Nc1c(-c2ccc(Cl)cc2)c(C(F)(F)F)nn1-c1ccc(C(=O)NCC(F)F)cc1 [I-A-Q2-164] | I-A-Q2-164: log P (HCOOH): 3.27 | – |
| Nc1c(-c2cc(Cl)cc(Cl)c2)c(C(F)(F)F)nn1-c1ccc(C(=O)NCc2ccccc2)cc1 [I-A-Q2-152] | I-A-Q2-152: log P (HCOOH): 4.45 | – |
| CCNC(=O)NCc1ccc(-n2nc(C(F)(F)F)c(-c3cc(Cl)cc(Cl)c3)c2N)cc1Cl [I-A-Q3-024] | – | log P (HCOOH) [1]: I-A-Q3-024: log P (HCOOH): 3.85 |
| Nc1c(-c2cc(Cl)cc(Cl)c2)c(C(F)(F)F)nn1-c1ccc(C(=O)NCc2ncccn2)cc1 [I-A-Q2-137] | I-A-Q2-137: log P (HCOOH): 3.40 | – |
| Cc1cc(-n2nc(CC(C)C)c(-c3ccc(Cl)cc3)c2N)ccc1C(=O)NCC(F)(F)C(F)F [I-A-Q2-342] | I-A-Q2-342: log P (HCOOH): 3.85 | – |
| Nc1c(-c2ccc(F)c(F)c2)c(C(F)(F)F)nn1-c1ccc(C(=O)O)cc1 [I-A-Q4-092] | – | log P (HCOOH) [2]: I-A-Q4-092: log P (HCOOH): 3.06 |
| C=CCNC(=O)c1ccc(-n2nc(C(F)(F)F)c(-c3cc(Cl)cc(Cl)c3)c2N)cc1 [I-A-Q2-144] | I-A-Q2-144: log P (HCOOH): 3.93 | – |
| Nc1c(-c2ccc(Cl)c(F)c2)c(C(F)(F)F)nn1-c1ccc(C(=O)NC2CC2)cc1 [I-A-Q2-170] | I-A-Q2-170: log P (HCOOH): 3.15 | – |
| Cc1nn(-c2ccc(-n3cncn3)c(C#N)c2)c(N)c1-c1ccccc1Cl [I-A-Q1-060] | – | log P (HCOOH) [1]: I-A-Q1-060: log P (HCOOH): 2.27 |
| N#Cc1cc(-n2nc(C(F)(F)Oc3cccc(Cl)c3)c(-c3cc(Cl)cc(C(F)(F)F)c3)c2N)ccc1-n1cncn1 [I-A-Q1-072] | – | log P (HCOOH) [1]: I-A-Q1-072: log P (HCOOH): 4.82 |
| Cc1cc(C)nc(CNC(=O)c2ccc(-n3nc(C(F)(F)F)c(-c4cc(Cl)cc(Cl)c4)c3N)cc2C)n1 [I-A-Q2-245] | I-A-Q2-245: log P (HCOOH): 3.89 | – |
| Cc1cc(-n2nc(C(F)(F)F)c(-c3ccc(Br)cc3)c2N)ccc1C(=O)NCc1ccccn1 [I-A-Q2-346] | I-A-Q2-346: log P (HCOOH): 2.80 | – |

| Compound | log P (HCOOH) (HCOOH) | other results |
| --- | --- | --- |
| CCOC(=O)c1ccc(-n2nc(C(F)(F)F)c(-c3ccc(Cl)c(Cl)c3)c2N)cc1C [I-A-Q4-013, Ethyl 4-[5-amino-4-(3,4-dichlorophenyl)-3-(trifluoromethyl)-1H-pyrazol-1-yl]-2-methylbenzoate] | – | chromatographic logP [1]: 5.24 |
| Cc1cc(-n2nc(C(F)(F)F)c(-c3cc(Cl)cc(Cl)c3)c2N)ccc1C(=O)NCc1ncc(Cl)cc1C(F)(F)F [I-A-Q2-235] | I-A-Q2-235: log P (HCOOH): 4.95 | – |
| CSCCNC(=O)c1ccc(-n2nc(C(F)(F)F)c(-c3cc(Cl)cc(Cl)c3)c2N)cc1C [I-A-Q2-205] | I-A-Q2-205: log P (HCOOH): 4.17 | – |
| CCOC(=O)c1ccc(-n2nc(C(F)(F)F)c(I)c2N)cc1 [XI-A-044] | XI-A-044: log P (HCOOH): 3.66 | – |
| Nc1c(I)c(C(F)(F)F)nn1-c1ccc(C(=O)O)cc1 [XI-A-045] | XI-A-045: log P (HCOOH): 2.47 | – |
| Nc1c(-c2ccccc2Cl)c(C(F)(F)F)nn1-c1ccc(C(=O)NCc2ncccn2)cc1 [I-A-Q2-080] | I-A-Q2-080: log P (HCOOH): 2.38 | – |
| Cc1cc(-n2nc(C(F)(F)F)c(-c3cc(Cl)cc(Cl)c3)c2N)ccc1C(=O)N(Cc1ccccn1)Cc1ccccn1 [I-A-Q2-199] | I-A-Q2-199: log P (HCOOH): 3.48 | – |
| N#Cc1cc(-n2nc(C(F)(F)F)c(-c3cc(Cl)cc(Cl)c3)c2N)ccc1S(=O)(=O)NCC(F)(F)F [I-A-Q4-123] | – | log P (HCOOH) [2]: I-A-Q4-123: log P (HCOOH): 4.41 |
| Cc1cc(-n2nc(C(F)(F)F)c(-c3ccc(Cl)cc3Cl)c2N)ccc1C(=O)NCC(F)(F)C(F)F [I-A-Q2-305] | I-A-Q2-305: log P (HCOOH): 3.75 | – |
| Cc1cc(-n2nc(C(F)(F)C(F)(F)F)c(-c3cc(C(F)(F)F)cc(C(F)(F)F)c3)c2N)ccc1C(=O)NCc1ccccn1 [I-A-Q2-383] | I-A-Q2-383: log P (HCOOH): 3.94 | – |
| CCC(CC)NC(=O)c1ccc(-n2nc(C(F)(F)F)c(-c3cc(Cl)cc(Cl)c3)c2N)cc1C [I-A-Q2-225] | I-A-Q2-225: log P (HCOOH): 4.57 | – |
| Cc1cc(-n2nc(C(F)(F)Oc3ccc(Cl)cc3)c(-c3cc(Cl)cc(C(F)(F)F)c3)c2N)ccc1C(=O)NCC(F)(F)C(F)F [I-A-Q2-294] | I-A-Q2-294: log P (HCOOH): 4.95 | – |
| Cc1cc(-n2nc(C(F)(F)F)c(-c3ccc(Cl)c(Cl)c3)c2N)ccc1C(=O)O [I-A-Q4-012, 4-[5-Amino-4-(3,4-dichlorophenyl)-3-(trifluoromethyl)-1H-pyrazol-1-yl]-2-methylbenzoic acid] | – | chromatographic logP [1]: 3.92 |
| Nc1c(-c2cc(Cl)cc(Cl)c2)c(C(F)(F)F)nn1-c1ccc(C(=O)NCCCC(F)=C(F)F)cc1 [I-A-Q2-073] | I-A-Q2-073: log P (HCOOH): 4.35 | – |
| Cc1nn(-c2ccc(Cl)cn2)c(N)c1-c1ccc(Cl)cc1 [I-A-Q4-039] | – | log P (HCOOH) [2]: I-A-Q4-039: log P (HCOOH): 4.40 |
| COC(=O)c1ccc(-n2nc(C(F)(F)F)c(I)c2N)cc1C [XI-A-083] | XI-A-083: log P (HCOOH): 3.48 | – |
| Cc1cc(-n2nc(C3CC3)c(-c3ccc(Cl)cc3)c2N)ccc1C(=O)NCc1ccccn1 [I-A-Q2-381] | I-A-Q2-381: log P (HCOOH): 2.46 | – |
| Nc1c(-c2cc(Cl)cc(Cl)c2)c(C(F)(F)F)nn1-c1ccc(F)c(F)c1 [I-A-Q4-109] | – | log P (HCOOH) [2]: I-A-Q4-109: log P (HCOOH): 4.77 |
| Cc1cc(C)cc(-c2c(C(F)(F)F)nn(-c3ccc(Cl)cn3)c2N)c1 [I-A-Q4-022] | – | log P (HCOOH) [2]: I-A-Q4-022: log P (HCOOH): 5.22 |
| Cc1cc(-n2nc(C(F)(F)F)c(-c3ccccc3Br)c2N)ccc1C(=O)NCC(F)(F)C(F)F [I-A-Q2-423] | I-A-Q2-423: log P (HCOOH): 3.55 | – |
